# Like-named read-outs stand apart in the source and are kept apart here. Square brackets hold non-standard residues; d marks the D form. Peptide text beside a SMILES is read from it. tBuAla = CC(C)(C)C[C@H](N)C(=O)O; Nle = CCCC[C@H](N)C(=O)O
# Molecular target: T1, human eIF4E (Homo sapiens, UniProt P06730)
# T1 construct: made in house
# Test: biochemical assay of peptide binding to human eIF4E (displacement of biotin labeled 4G2 peptide)
# Description: A biochemical assay was run to test peptide binding to human eIF4E.
# Human eIF4E (aa 28-217, SEQ ID NO: 87) with a C-terminal His tag (HH-eIF4E, SEQ ID NO: 88) was expressed in E. coli in inclusion bodies. The protein was solubilized with 8 M urea and purified under denaturing conditions using nickel-charged HisTrap HP columns (GE Healthcare). The protein was refolded by diluting to approximately 0.25 mg/mL with 6 M urea, 20 mM Hepes pH 7.0, 500 mM NaCl, 1 mM DTT, 1 mM EDTA, and 0.5 M arginine.HCl, and then dialyzing overnight into the same buffer without the urea. The protein was further dialyzed into 20 mM Hepes pH 6.5, 50 mM NaCl, 1 mM EDTA, and 1 mM DTT, filtered, and then concentrated using Hitrap SP sepharose FF columns (GE Healthcare). The protein was dialyzed into 20 mM Hepes pH 7.0, 500 mM NaCl, 5 mM DTT, and 10% glycerol and stored at −80° C. until use.
# Test peptides (1.6 mM stock in DMSO) were diluted 3 fold in series in DMSO and solutions were diluted 4 fold in Assay Buffer (50 mM NaPi, pH 6.5, 50 mM KCl, 1 mM DTT, 0.004% NP40 and 0.5 mg/ml gammaglobulin). Six microliters per well of diluted peptide solutions and 12 microliters per well of 187.5 nM HH-eIF4E in Assay Buffer were added to 384-well polypropylene microplates (Matrix, Thermal Scientific). Twelve microliters per well of 187.5 nM biotin labeled 4G2 peptide (Ac-[…]Aha-Bio)-NH2 (SEQ ID NO: 91) 1:2 TFA) in Assay Buffer was added. The samples were incubated at room temperature for 20 minutes.
# Six microliters per well of 4.8 nM Eu-streptavidin (Columbia Biosciences) and 48 nM Allophycocyanin-anti His antibody (Columbia Biosciences) in Assay Buffer (without DTT) were then added and the samples were incubated at room temperature for 30 min. Assay signals were monitored by reading emission fluorescence at 665 nm on an Envision Reader (PerkinElmer Life and Analytical Sciences). IC50 values were calculated using Condoseo software (Genedata AG, Basel, Switzerland).
# [1] = Table 1, peptides which bind eIF4E but are not cell-penetrating, read-out: IC50
# [2] = IC50 (μM), Table 2a, cell penetrating peptides with the Y----LL-F and YWLLALFVY motifs
# [3] = IC50 (μM), Table 2, cell-penetrating peptides with the Y----LL-F motif
# [4] = IC50 (μM), Table 3, cell-penetrating peptides without the Y----LL-F motif
# T1 sequence (P06730 with tags, fused parts or gaps): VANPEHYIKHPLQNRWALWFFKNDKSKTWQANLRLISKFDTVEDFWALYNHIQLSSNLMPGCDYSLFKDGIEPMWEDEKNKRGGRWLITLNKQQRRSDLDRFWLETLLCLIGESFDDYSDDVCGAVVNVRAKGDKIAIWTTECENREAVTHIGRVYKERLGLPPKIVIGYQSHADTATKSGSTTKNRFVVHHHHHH
compound,measurement,setting,value
Ac-KQYDREFLLDFQFMPA-NH2 [SEQ ID NO: 52],IC50,[1],10.5 µM
CCCC[C@H](NC(=O)[C@H](CC(C)C)NC(=O)[C@H](CC(=O)O)NC(=O)[C@@H](NC(=O)[C@H](Cc1c[nH]c2ccccc12)NC(=O)[C@H](CCSC)NC(=O)[C@H](Cc1ccc(O)cc1)NC(=O)[C@@H](NC(=O)[C@H](Cc1ccccc1)NC(=O)[C@H](CC(C)C)NC(=O)[C@H](C)NC(=O)[C@H](CC(C)C)NC(=O)[C@H](CC(C)C)NC(=O)[C@H](Cc1c[nH]c2ccccc12)NC(=O)[C@H](Cc1ccc(O)cc1)NC(=O)[C@H](C)NC(=O)[C@H](CC(C)C)NC(=O)[C@H](C)NC(=O)[C@H](C)NC(=O)[C@H](CCSC)NC(C)=O)C(C)C)[C@@H](C)O)C(=O)N[C@@H](CC(C)C)C(=O)N[C@@H](Cc1ccccc1)C(=O)N[C@@H](CCCCN)C(=O)N[C@@H](CCCCN)C(=O)N[C@@H](CCCNC(=N)N)C(=O)N1CCC[C@H]1C(=O)N[C@@H](CCCCN)C(=O)N1CCC[C@H]1C(N)=O [SEQ ID NO: 28] (Ac-MAALAYWLLALFVYMWTDL[Nle]LFKKRPKP-NH2),IC50,[2],4.59 µM
Ac-MVKSKIYSWILLLFFAMWSDVKLKKKRPKP-NH2 [SEQ ID NO: 21],IC50,[3],6.85 µM
Ac-MANLAYWLLALFVYRWTDLRLFKKRPKP-NH2 [SEQ ID NO: 41],IC50,[2],3.48 µM
Ac-MYKSKILLWFLVLFVAMWSDVGLCKKRPKP-NH2 [SEQ ID NO: 14],IC50,[3],3.62 µM
Ac-NLAYWLLALFVYMWTDLRLFKKRPKP-NH2 [SEQ ID NO: 35],IC50,[2],5.04 µM
Ac-MVKSKIYSWILLLFFAMWSDVGLCKKRPKP-NH2 [SEQ ID NO: 15],IC50,[3],5.2 µM
CCCC[C@H](NC(=O)[C@H](CC(C)C)NC(=O)[C@H](CO)NC(=O)[C@H](C)NC(=O)[C@@H](NC(=O)[C@H](CCCCN)NC(=O)[C@H](Cc1ccc(O)cc1)NC(=O)[C@H](CCCCN)NC(=O)[C@@H](NC(=O)[C@H](CCSC)NC(C)=O)C(C)C)[C@@H](C)CC)C(=O)N[C@@H](CC(C)C)C(=O)N[C@@H](Cc1ccccc1)C(=O)N[C@@H](CC(C)C)C(=O)N[C@@H](Cc1ccccc1)C(=O)N[C@H](C(=O)N[C@@H](C)C(=O)N[C@@H](CCSC)C(=O)N[C@@H](Cc1c[nH]c2ccccc12)C(=O)N[C@@H](CO)C(=O)N[C@@H](CC(=O)O)C(=O)N[C@H](C(=O)N[C@@H](C)C(=O)N[C@@H](CC(C)C)C(=O)N[C@@H](C)C(=O)N[C@@H](CCCCN)C(=O)N[C@@H](CCCCN)C(=O)N[C@@H](CCCNC(=N)N)C(=O)N1CCC[C@H]1C(=O)N[C@@H](CCCCN)C(=O)N1CCC[C@H]1C(N)=O)C(C)C)C(C)C [SEQ ID NO: 45] (Ac-MVKYKIASL[Nle]LFLFVAMWSDVALAKKRPKP-NH2),IC50,[4],3.06 µM
CCCC[C@H](NC(=O)[C@H](Cc1ccccc1)NC(=O)[C@H](CCC(N)=O)NC(=O)[C@H](Cc1ccccc1)NC(=O)[C@H](C)NC(=O)[C@H](CC(C)C)NC(=O)[C@H](CC(C)C)NC(=O)[C@H](Cc1ccccc1)NC(=O)[C@H](CCC(=O)O)NC(=O)[C@H](CCCNC(=N)N)NC(=O)[C@H](CC(=O)O)NC(=O)[C@H](Cc1ccc(O)cc1)NC(=O)[C@H](CCCNC(=N)N)NC(=O)[C@H](CCCCN)NC(C)=O)C(=O)N[C@H](C(=O)N[C@@H](Cc1ccc(O)cc1)C(=O)N[C@@H](CC(=O)O)C(=O)N[C@@H](CC(C)C)C(=O)NCC(=O)N[C@@H](CC(C)C)C(=O)N[C@@H](CCCNC(=N)N)C(=O)N[C@@H](CCCNC(=N)N)C(=O)N[C@@H](CC(C)C)C(=O)N[C@@H](CCCNC(=N)N)C(=O)N[C@@H](CCC(N)=O)C(=O)N[C@@H](CCCNC(=N)N)C(=O)N[C@@H](CCCNC(=N)N)C(=O)N[C@@H](CCCNC(=N)N)C(=O)N[C@@H](CC(C)C)C(=O)N[C@@H](CCCNC(=N)N)C(=O)N[C@@H](CCCNC(=N)N)C(N)=O)C(C)C [SEQ ID NO: 7] (Ac-KRYDREFLLAFQF[Nle]VYDLGLRRLRQRRRLRR-NH2),IC50,"HH-eIF4E, biotin labeled 4G2 peptide, read-out: Binding affinities expressed as IC50",0.21 µM
Ac-MAALAYWLLALFVYMWTDLLLFKKRPKP-NH2 [SEQ ID NO: 27],IC50,[2],10.7 µM
Ac-YWLLALFVYMWTDLRLFKKRPKP-NH2 [SEQ ID NO: 37],IC50,[2],2.9 µM
Ac-LAYWLLALFVYMWTDLRLFKKRPKP-NH2 [SEQ ID NO: 31],IC50,[2],4.35 µM
Ac-AYWLLALFVYMWTDLRLFKKRPKP-NH2 [SEQ ID NO: 36],IC50,[2],2.53 µM
CCCC[C@H](NC(=O)[C@H](Cc1ccc(O)cc1)NC(=O)[C@@H](NC(=O)[C@H](Cc1ccccc1)NC(=O)[C@H](CC(C)C)NC(=O)[C@H](C)NC(=O)[C@H](CC(C)C)NC(=O)[C@H](CC(C)C)NC(=O)[C@H](Cc1c[nH]c2ccccc12)NC(=O)[C@H](Cc1ccc(O)cc1)NC(=O)[C@H](C)NC(=O)[C@H](CC(C)C)NC(=O)[C@H](CC(N)=O)NC(=O)[C@H](C)NC(=O)[C@H](CCSC)NC(C)=O)C(C)C)C(=O)N[C@@H](Cc1c[nH]c2ccccc12)C(=O)N[C@H](C(=O)N[C@@H](CC(=O)O)C(=O)N[C@@H](CC(C)C)C(=O)N[C@@H](CCCNC(=N)N)C(=O)N[C@@H](CC(C)C)C(=O)N[C@@H](Cc1ccccc1)C(=O)N[C@@H](CCCCN)C(=O)N[C@@H](CCCCN)C(=O)N[C@@H](CCCNC(=N)N)C(=O)N1CCC[C@H]1C(=O)N[C@@H](CCCCN)C(=O)N1CCC[C@H]1C(N)=O)[C@@H](C)O [SEQ ID NO: 39] (Ac-MANLAYWLLALFVY[Nle]WTDLRLFKKRPKP-NH2),IC50,[2],1.75 µM
Ac-LAYWLLALFVYMWTDLRLAKKRPKP-NH2 [SEQ ID NO: 33],IC50,[2],6.24 µM
Ac-MANLAYWLLALFVYLWTDLRLFKKRPKP-NH2 [SEQ ID NO: 38],IC50,[2],3.04 µM
Ac-MVKYKIGSLLLFLFVAMWSDVGLCKKRPKP-NH2 [SEQ ID NO: 12],IC50,[3],4.13 µM
Ac-MVKSKIYSWILLLFFAMWSDVALAKKRPKP-NH2 [SEQ ID NO: 20],IC50,[3],9.96 µM
Ac-MANLAYWLLALFVYMFTDLRLFKKRPKP-NH2 [SEQ ID NO: 42],IC50,[2],3.91 µM
Ac-LAYWLLALFVAMWTDLRLFKKRPKP-NH2 [SEQ ID NO: 49],IC50,[4],1.99 µM
Ac-MVKYKIASLLLFLFVAMWSDVKLKKKRPKP-NH2 [SEQ ID NO: 18],IC50,[3],6.71 µM
Ac-WLLALFVYMWTDLRLFKKRPKP-NH2 [SEQ ID NO: 50],IC50,[4],2.36 µM
CCCC[C@H](NC(=O)[C@H](Cc1ccccc1)NC(=O)[C@H](CCC(N)=O)NC(=O)[C@H](Cc1ccccc1)NC(=O)[C@H](C)NC(=O)[C@H](CC(C)C)NC(=O)[C@H](CC(C)C)NC(=O)[C@H](Cc1ccccc1)NC(=O)[C@H](CCC(=O)O)NC(=O)[C@H](CCCNC(=N)N)NC(=O)[C@H](CC(=O)O)NC(=O)[C@H](Cc1ccccc1)NC(=O)[C@H](CCCNC(=N)N)NC(=O)[C@H](CCCCN)NC(C)=O)C(N)=O [SEQ ID NO: 84] (Ac-KRFDREFLLAFQF[Nle]-NH2),IC50,[1],4.07 µM
Ac-GAAEAAAYVYDLLLRFLRQRRRLRRERVRA-NH2 [SEQ ID NO: 25],IC50,"Table 2, cell-penetrating peptides with the Y----LL-F motif, read-out: IC50",11 µM
Ac-MVKYKIASLLLFLFVAMWSDVALAKKRPKP-NH2 [SEQ ID NO: 17],IC50,[3],12.5 µM
Ac-MVKSKYGSWILLLFVAMWSDVGLCKKRPKP-NH2 [SEQ ID NO: 13],IC50,[3],6.89 µM
Ac-LLALFVYMWTDLRLFKKRPKP-NH2 [SEQ ID NO: 51],IC50,[4],3.75 µM
CSCC[C@H](NC(=O)[C@H](Cc1ccc(O)cc1)NC(=O)[C@@H](NC(=O)[C@H](Cc1ccccc1)NC(=O)[C@H](CC(C)C)NC(=O)[C@H](C)NC(=O)[C@H](CC(C)C)NC(=O)[C@H](CC(C)C)NC(=O)[C@H](Cc1c[nH]c2ccccc12)NC(=O)[C@H](Cc1ccc(O)cc1)NC(=O)[C@H](C)NC(=O)[C@H](CC(C)C)NC(C)=O)C(C)C)C(=O)N[C@@H](Cc1c[nH]c2ccccc12)C(=O)N[C@H](C(=O)N[C@@H](CC(=O)O)C(=O)N[C@@H](CC(C)C)C(=O)N[C@@H](CCCNC(=N)N)C(=O)N[C@@H](CC(C)C)C(=O)N[C@@H](CC(C)(C)C)C(=O)N[C@@H](CCCCN)C(=O)N[C@@H](CCCCN)C(=O)N[C@@H](CCCNC(=N)N)C(=O)N1CCC[C@H]1C(=O)N[C@@H](CCCCN)C(=O)N1CCC[C@H]1C(N)=O)[C@@H](C)O [SEQ ID NO: 32] (Ac-LAYWLLALFVYMWTDLRL[tBuAla]KKRPKP-NH2),IC50,[2],4.73 µM

# From US9409961B2, “Cell penetrating peptides to target EIF4E” (Hoffmann-La Roche Inc., priority 2012, dated 2016)
